In patent US10072017B2, “Compounds and methods for the treatment of cystic fibrosis” (Flatley Discovery Lab, LLC, priority 2015, dated 2018):

Target: T1, CFTR (Homo sapiens, UniProt P13569, DEL508-508)
T1 construct: Primary CF airway epithelial cells were obtained from the UNC Cystic Fibrosis Tissue Procurement and Cell Culture Core; host or cells: primary CF airway epithelial cells
Assay: Equivalent current assay in Primary CF airway epithelial cells (NAUC)
Type: cell-based
Conditions: 24 h, normalized to VX809 (3 μM) positive control; for Nauc @ 3 μM: 3 μM test compound; for Nauc @ 10 μM: 10 μM test compound
Experimental: Primary CF airway epithelial cells were obtained from the UNC Cystic Fibrosis Tissue Procurement and Cell Culture Core. The cells are grown at 37° C. in a Heracell 150i incubator using growth media (BEGM, Fischer). Cells were then transferred to differentiation media (ALI, UNC) for a minimum of 4 weeks on coated Costar snapwells. Two days before the Ussing assay the mucus on the apical surface of the cells was aspirated after incubating with 200 μL of differentiation Media for at least thirty (30) minutes. One day before the Ussing assay test compounds were added to the basolateral surface of the cells at various test concentrations dissolved in DMSO. Duplicate wells were prepared giving a n=3 or n=4 protocol.
Cells were treated for 24 hours with various combinations and concentrations of the test articles, reference standard (3 μM VX809, positive control). Compounds stock solutions were prepared in DMSO and diluted 1/1000 into ALI media to their final assay concentration. Cells were treated with combination solutions (2 mL of each dilution) and incubated at 37° C. for 24 h.
For the equivalent current assay, cells on four Transwell (24-well) plates were treated. Each Transwell plate was filled with 200 μl of HBS on the apical surface and 2 ml on the basolateral surface. Plates were placed horizontally in a heated mount at 37° C., and equilibrated for several minutes. Resting current was measured for 15 min and then blocked by the apical addition of 5 μM benzamil. After 20 min, 10 μM forskolin and 1 μM VX770 were added to both the apical and basolateral side to stimulate CFTR. An increase in chloride current is seen as an upward deflection of the trace. After another 30 min, CFTR-172 (a CFTR inhibitor, 20 μM) and/or bumetanide (20 uM) was added to block CFTR mediated chloride current.
The raw data, current vs. time for the Ussing chamber (sampling interval: 10 s) and voltage vs. time and resistance vs. time for the equivalent current assay (sampling interval: 5 minutes) were transferred to Excel (Microsoft Office Professional, version 14.0.7106.5003) for analysis. CFTR specific current was measured as the average amplitude of the increase in current elicited upon addition forskolin and ending upon addition of the CFTR channel specific blocker CFTR-172. This average is equivalent to the sum of the average forskolin activated and the average VX770-potentiated currents. The average current measured in vehicle (0.1% DMSO) treated cells, Iv, was subtracted from the current for the test article, ITA, or from the corrector reference standard VX809 (3 uM ISTD. For replicate measurements, the average vehicle subtracted response for the test article, was normalized to the average vehicle subtracted inhibitor response of the reference corrector VX809 (3 μM). INSC=(ITA−IV)(ave)/(ISTD−IV)(ave) (Equation 1)
A second endpoint, for the equivalent current assay, evaluated was NAUC, the normalized area under the curve (AUC) measuring the response after addition of forskolin and VX770 to the time point right before the addition of the CFTR inhibitor. The AUC is effectively the average response multiplied by the duration of the response. The AUC of the test article, AUCTA was then corrected by subtracting the average vehicle response, AUCV,ave over the same time range, and normalized as for the inhibitor-sensitive current to the difference of the corrector reference standard VX809 (3 μM VX809r,ave and the vehicle response: NAUCTA=[AUCTA−AUCV,ave]/[AUCVx809r,ave−AUCV,ave] (Equation 2).
The normalized value for DMSO is 0.0 and for VX-809 alone is 1.0. Combinations of compounds with VX-809 that give normalized values greater than 1.0 show activity in the combination assay. A value of 2 means the test compound doubles the effect to VX-809 alone.
Experiments were run with a minimum of n=4 replicates per concentration. […]

T1 sequence (P13569 with tags, fused parts or gaps DEL508-508): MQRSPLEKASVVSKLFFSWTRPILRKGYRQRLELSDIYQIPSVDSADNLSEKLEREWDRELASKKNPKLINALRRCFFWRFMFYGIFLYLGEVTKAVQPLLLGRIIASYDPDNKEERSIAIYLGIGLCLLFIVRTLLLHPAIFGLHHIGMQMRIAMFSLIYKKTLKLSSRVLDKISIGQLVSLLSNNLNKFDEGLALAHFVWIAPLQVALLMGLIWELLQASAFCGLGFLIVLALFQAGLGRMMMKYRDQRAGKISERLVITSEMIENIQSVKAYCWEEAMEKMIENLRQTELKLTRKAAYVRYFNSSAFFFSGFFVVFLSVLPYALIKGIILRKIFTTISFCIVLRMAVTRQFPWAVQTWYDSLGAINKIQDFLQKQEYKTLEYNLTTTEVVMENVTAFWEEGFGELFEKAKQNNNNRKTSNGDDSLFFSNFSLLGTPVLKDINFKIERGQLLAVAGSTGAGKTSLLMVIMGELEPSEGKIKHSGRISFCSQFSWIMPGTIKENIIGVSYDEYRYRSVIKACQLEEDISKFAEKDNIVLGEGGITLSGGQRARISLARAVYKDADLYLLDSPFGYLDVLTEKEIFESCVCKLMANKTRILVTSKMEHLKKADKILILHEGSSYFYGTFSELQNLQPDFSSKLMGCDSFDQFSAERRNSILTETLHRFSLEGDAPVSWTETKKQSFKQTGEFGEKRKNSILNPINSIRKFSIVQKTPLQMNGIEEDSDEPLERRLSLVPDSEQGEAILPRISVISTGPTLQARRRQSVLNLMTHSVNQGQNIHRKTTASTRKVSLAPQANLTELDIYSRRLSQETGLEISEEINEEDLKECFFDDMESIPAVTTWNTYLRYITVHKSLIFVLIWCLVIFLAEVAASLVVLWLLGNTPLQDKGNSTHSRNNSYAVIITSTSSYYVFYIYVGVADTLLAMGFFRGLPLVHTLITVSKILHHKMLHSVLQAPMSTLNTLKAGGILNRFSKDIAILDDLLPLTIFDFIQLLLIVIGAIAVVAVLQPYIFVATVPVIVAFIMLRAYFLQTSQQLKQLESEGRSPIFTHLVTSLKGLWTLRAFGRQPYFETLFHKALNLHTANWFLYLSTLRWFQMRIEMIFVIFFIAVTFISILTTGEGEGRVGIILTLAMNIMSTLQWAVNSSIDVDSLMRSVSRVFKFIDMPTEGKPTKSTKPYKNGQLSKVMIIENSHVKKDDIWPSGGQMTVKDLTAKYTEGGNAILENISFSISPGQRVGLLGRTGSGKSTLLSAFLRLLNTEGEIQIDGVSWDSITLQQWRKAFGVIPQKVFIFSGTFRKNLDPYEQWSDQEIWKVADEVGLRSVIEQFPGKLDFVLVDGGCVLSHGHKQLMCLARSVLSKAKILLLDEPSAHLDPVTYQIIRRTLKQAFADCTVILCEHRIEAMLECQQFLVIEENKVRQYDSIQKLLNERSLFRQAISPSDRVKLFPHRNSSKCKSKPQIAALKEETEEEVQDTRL

**Q.** What does the source list for `CC1(C)CC2C3C(=O)N(c4cc(Cl)cc(Cl)c4)C(=O)C3C3(C(=O)Nc4c(Cl)cc(Cl)cc43)N2C1` (single isomer, unassigned) [Example 120]?
**A.** Nauc @ 3 μM: +++ (NAUC “+++” refers to an observed NAUC >170% of positive control); Nauc @ 10 μM: + (NAUC “+” refers to an observed NAUC <140% of positive control)

**Q.** `COc1cc(Cl)cc(N2C(=O)C3C4CC(=C(F)F)CN4C4(C(=O)Nc5c(Cl)cc(Cl)cc54)C3C2=O)c1` (single isomer, unassigned) [Example 138] was tested. Which “Nauc @ 3 μM” value did it give?
**A.** +++ (NAUC “+++” refers to an observed NAUC >170% of positive control)

**Q.** And the “Nauc @ 10 μM” value?
**A.** + (NAUC “+” refers to an observed NAUC <140% of positive control)

**Q.** Which “Nauc @ 3 μM” value does the source give for `COc1cc(Cl)cc(N2C(=O)C3C4CC(=C(F)F)CN4C4(C(=O)Nc5c(Cl)cc(Cl)cc54)C3C2=O)c1` (single isomer, unassigned) [Example 139] here?
**A.** ++ (NAUC “++” refers to an observed NAUC 170-140% of positive control)

**Q.** What about the “Nauc @ 10 μM” value of the same compound?
**A.** + (NAUC “+” refers to an observed NAUC <140% of positive control)

**Q.** Which results are given for `COc1c(Cl)cc(N2C(=O)C3C4CC(C)(C)CN4C4(C(=O)Nc5c(Cl)cc(Cl)cc54)C3C2=O)cc1Cl` (single isomer, unassigned) [Example 140]?
**A.** Nauc @ 3 μM: +++ (NAUC “+++” refers to an observed NAUC >170% of positive control); Nauc @ 10 μM: +++ (NAUC “+++” refers to an observed NAUC >170% of positive control)

**Q.** Which “Nauc @ 3 μM” value does the source give for `COc1c(Cl)cc(N2C(=O)C3C4CC(C)(C)CN4C4(C(=O)Nc5c(Cl)cc(Cl)cc54)C3C2=O)cc1Cl` (single isomer, unassigned) [Example 141] here?
**A.** + (NAUC “+” refers to an observed NAUC <140% of positive control)

**Q.** What about the “Nauc @ 10 μM” value of the same compound?
**A.** ++ (NAUC “++” refers to an observed NAUC 170-140% of positive control)

**Q.** Which results are given for `C=C1CC2C3C(=O)N(c4cc(Cl)cc(Cl)c4)C(=O)C3C3(C(=O)Nc4c(Cl)cc(Cl)cc43)N2C1` (single isomer, unassigned) [Example 144]?
**A.** Nauc @ 3 μM: +++ (NAUC “+++” refers to an observed NAUC >170% of positive control); Nauc @ 10 μM: +++ (NAUC “+++” refers to an observed NAUC >170% of positive control)

**Q.** For `C[C@@]1(F)CC2C3C(=O)N(c4cc(Cl)cc(Cl)c4)C(=O)C3C3(C(=O)Nc4c(Cl)cc(Cl)cc43)N2C1` (single isomer, unassigned) [Example 161], which “Nauc @ 3 μM” value is on record?
**A.** +++ (NAUC “+++” refers to an observed NAUC >170% of positive control)

**Q.** What about the “Nauc @ 10 μM” value of the same compound?
**A.** +++ (NAUC “+++” refers to an observed NAUC >170% of positive control)

**Q.** For `COc1c(Cl)cc(N2C(=O)C3C4C[C@@](C)(F)CN4C4(C(=O)Nc5c(Cl)cc(Cl)cc54)C3C2=O)cc1Cl` (single isomer, unassigned) [Example 162], which “Nauc @ 3 μM” value is on record?
**A.** + (NAUC “+” refers to an observed NAUC <140% of positive control)

**Q.** What about the “Nauc @ 10 μM” value of the same compound?
**A.** ++ (NAUC “++” refers to an observed NAUC 170-140% of positive control)

**Q.** With `O=C1C2C3CC(F)(F)CN3C3(C(=O)Nc4c(Cl)cc(Cl)cc43)C2C(=O)N1c1cc(Cl)cc(Cl)c1` (single isomer, unassigned) [Example 179] as the compound, how does the “Nauc @ 3 μM” value read?
**A.** +++ (NAUC “+++” refers to an observed NAUC >170% of positive control)

**Q.** What about the “Nauc @ 10 μM” value of the same compound?
**A.** +++ (NAUC “+++” refers to an observed NAUC >170% of positive control)

**Q.** Which “Nauc @ 3 μM” value does the source give for `O=C1C2C3CC(F)(F)CN3C3(C(=O)Nc4c(Cl)cc(Cl)cc43)C2C(=O)N1c1cc(Cl)cc(Cl)c1` (single isomer, unassigned) [Example 180] here?
**A.** ++ (NAUC “++” refers to an observed NAUC 170-140% of positive control)

**Q.** And the “Nauc @ 10 μM” value?
**A.** + (NAUC “+” refers to an observed NAUC <140% of positive control)

**Q.** What does the source list for `O=C1C2C3CC4(CC4)CN3C3(C(=O)Nc4c(Cl)cc(Cl)cc43)C2C(=O)N1c1cc(Cl)cc(Cl)c1` (single isomer, unassigned) [Example 191]?
**A.** Nauc @ 3 μM: +++ (NAUC “+++” refers to an observed NAUC >170% of positive control); Nauc @ 10 μM: +++ (NAUC “+++” refers to an observed NAUC >170% of positive control)

**Q.** How did the “Nauc @ 3 μM” value turn out when `O=C1C2C3CC4(CC4)CN3C3(C(=O)Nc4c(Cl)cc(Cl)cc43)C2C(=O)N1c1cc(Cl)cc(Cl)c1` (single isomer, unassigned) [Example 192] was run?
**A.** + (NAUC “+” refers to an observed NAUC <140% of positive control)

**Q.** And the “Nauc @ 10 μM” value?
**A.** ++ (NAUC “++” refers to an observed NAUC 170-140% of positive control)

**Q.** Which “Nauc @ 3 μM” value does the source give for `COc1c(Cl)cc(N2C(=O)C3C4CC5(CC5)CN4C4(C(=O)Nc5c(Cl)cc(Cl)cc54)C3C2=O)cc1Cl` (single isomer, unassigned) [Example 197] here?
**A.** +++ (NAUC “+++” refers to an observed NAUC >170% of positive control)

**Q.** What about the “Nauc @ 10 μM” value of the same compound?
**A.** +++ (NAUC “+++” refers to an observed NAUC >170% of positive control)

**Q.** `O=C1C2C3CC4(CC4)CN3C3(C(=O)Nc4c(Cl)cc(Cl)cc43)C2C(=O)N1c1cc(Cl)cc(Cl)n1` (single isomer, unassigned) [Example 218] was tested. Which “Nauc @ 3 μM” value did it give?
**A.** +++ (NAUC “+++” refers to an observed NAUC >170% of positive control)

**Q.** And the “Nauc @ 10 μM” value?
**A.** +++ (NAUC “+++” refers to an observed NAUC >170% of positive control)

**Q.** Which results are given for `O=C1C2C3CC4(CC4)CN3C3(C(=O)Nc4c(Cl)cc(Cl)cc43)C2C(=O)N1c1cc(Cl)cc(Cl)n1` (single isomer, unassigned) [Example 219]?
**A.** Nauc @ 3 μM: ++ (NAUC “++” refers to an observed NAUC 170-140% of positive control); Nauc @ 10 μM: + (NAUC “+” refers to an observed NAUC <140% of positive control)

**Q.** Which “Nauc @ 3 μM” value does the source give for `O=C1C2C3CC(F)(F)CN3C3(C(=O)Nc4c(Cl)cc(Cl)cc43)C2C(=O)N1c1cc(Cl)cc(Cl)n1` (single isomer, unassigned) [Example 220] here?
**A.** +++ (NAUC “+++” refers to an observed NAUC >170% of positive control)

**Q.** And the “Nauc @ 10 μM” value?
**A.** +++ (NAUC “+++” refers to an observed NAUC >170% of positive control)

**Q.** With `COc1c(Cl)cc(N2C(=O)C3C4CC(F)(F)CN4C4(C(=O)Nc5c(Cl)cc(Cl)cc54)C3C2=O)cc1Cl` (single isomer, unassigned) [Example 221] as the compound, how does the “Nauc @ 3 μM” value read?
**A.** +++ (NAUC “+++” refers to an observed NAUC >170% of positive control)

**Q.** And the “Nauc @ 10 μM” value?
**A.** +++ (NAUC “+++” refers to an observed NAUC >170% of positive control)

**Q.** Which results are given for `C[C@@]1(F)CC2C3C(=O)N(c4cc(Cl)cc(Cl)n4)C(=O)C3C3(C(=O)Nc4c(Cl)cc(Cl)cc43)N2C1` (single isomer, unassigned) [Example 230]?
**A.** Nauc @ 3 μM: +++ (NAUC “+++” refers to an observed NAUC >170% of positive control); Nauc @ 10 μM: +++ (NAUC “+++” refers to an observed NAUC >170% of positive control)

**Q.** Which “Nauc @ 3 μM” value does the source give for `C[C@]1(OCc2ccccc2)CC2C3C(=O)N(c4cc(Cl)cc(Cl)c4)C(=O)C3C3(C(=O)Nc4c(Cl)cc(Cl)cc43)N2C1` (single isomer, unassigned) [Example 239] here?
**A.** ++ (NAUC “++” refers to an observed NAUC 170-140% of positive control)

**Q.** What about the “Nauc @ 10 μM” value of the same compound?
**A.** ++ (NAUC “++” refers to an observed NAUC 170-140% of positive control)
